Measured values taken from US7833685B2, “Coloring compound and yellow toner containing the coloring compound” (Canon Kabushiki Kaisha, priority 2006, dated 2010).

Experiments:
[1] = Evaluation of coloring compound for lightfastness (sun tester irradiation, color difference ΔE); format: physicochemical; settings: ΔE after sun tester irradiation, 765 w/m^2, 50° C., 20 hours, on CLC color copy paper
Method: <Evaluation of Coloring Compound for Lightfastness>
A coloring compound was dissolved in a mixed liquid prepared by mixing tetrahydrofuran and cyclohexanone at a volume ratio of 1:1, whereby a 0.04-mol/l coloring compound solution was prepared. The coloring compound solution was filtrated through a filter (pore diameter: 0.2 μm). The coloring compound solution after the filtration was applied to CLC color copy paper (manufactured by Canon Inc.) by a bar coat method (Bar No. 3), and the resultant test paper was dried with air for one whole day and night. Next, the test paper was tested by being irradiated with light from a sun tester (XF-180CPS, manufactured by Shimadzu Corporation) at an illuminance of 765 w/m^2 and a temperature of 50° C. for an irradiation time of 20 hours. The test paper was analyzed with a spectrophotometer (SPECTROLINO, manufactured by Gretag Macbeth) before and after the irradiation test. The chromaticities (L*, a*, b*) of the test paper in an L*a*b* colorimetric system were measured before and after the irradiation test. A color difference (ΔE) was calculated from the following equation.
The coloring compound was evaluated for its lightfastness as described below. • A: ΔE is less than 15. • B: ΔE is 15 or more and less than 30. • C: ΔE is 30 or more.
The coloring compound was judged to have good lightfastness when ΔE was less than 30.

[2] = Evaluation of coloring compound for its solubility in a styrene monomer; format: physicochemical; settings: in a styrene monomer at 25° C.
Method: <Evaluation of Coloring Compound for its Solubility>
A coloring compound was tested for its solubility in a styrene monomer at a temperature of 25° C. of dissolution.
The coloring compound was judged to have sufficient solubility when the percentage by which the coloring compound dissolved in the styrene monomer was 1 mass % or more.

CCCCC(CC)CN(CC(CC)CCCC)C(=O)c1ccccc1/N=N/c1c(O)[nH]c(=O)c(C#N)c1C (centres unmarked) [D1]
Lightfastness [1]: A (ΔE is less than 15) | Solubility [2]: A (The percentage by which the coloring compound dissolves in the styrene monomer is 10 mass % or more)

CCCCC(CC)CN(CC(CC)CCCC)C(=O)c1ccccc1N=Nc1c(O)[nH]c(=O)c(C#N)c1-c1ccccc1 (centres unmarked) [D2]
Lightfastness [1]: A (ΔE is less than 15) | Solubility [2]: A (The percentage by which the coloring compound dissolves in the styrene monomer is 10 mass % or more)

CCCCCCN(CCCCCC)C(=O)c1ccccc1N=Nc1c(O)[nH]c(=O)c(C#N)c1C [D3]
Lightfastness [1]: A (ΔE is less than 15) | Solubility [2]: A (The percentage by which the coloring compound dissolves in the styrene monomer is 10 mass % or more)

CCCCCCCCCCCCN(CCCCCCCCCCCC)C(=O)c1ccccc1N=Nc1c(O)[nH]c(=O)c(C#N)c1C [D4]
Lightfastness [1]: A (ΔE is less than 15) | Solubility [2]: A (The percentage by which the coloring compound dissolves in the styrene monomer is 10 mass % or more)

CCCCCCCCCCCCN(CCCCCCCCCCCC)C(=O)c1cc(Cl)ccc1N=Nc1c(O)[nH]c(=O)c(C#N)c1C [D5]
Lightfastness [1]: B (ΔE is 15 or more and less than 30) | Solubility [2]: A (The percentage by which the coloring compound dissolves in the styrene monomer is 10 mass % or more)

CCCCc1c(N=Nc2ccc(C)cc2C(=O)OCC(CC)CCCC)c(O)[nH]c(=O)c1C#N (centres unmarked) [D6]
Lightfastness [1]: B (ΔE is 15 or more and less than 30) | Solubility [2]: B (The percentage by which the coloring compound dissolves in the styrene monomer is 1 mass % or more and less than 10 mass %)

CCCCC(CC)CN(CC(CC)CCCC)C(=O)c1ccccc1N=Nc1c(C)cc(=O)[nH]c1O (centres unmarked) [D7]
Lightfastness [1]: B (ΔE is 15 or more and less than 30) | Solubility [2]: B (The percentage by which the coloring compound dissolves in the styrene monomer is 1 mass % or more and less than 10 mass %)

CCCCCCCCc1ccc(OC(=O)c2ccccc2N=Nc2c(O)[nH]c(=O)c(C#N)c2C)cc1 [D8]
Lightfastness [1]: A (ΔE is less than 15) | Solubility [2]: B (The percentage by which the coloring compound dissolves in the styrene monomer is 1 mass % or more and less than 10 mass %)

CCCCc1c(N=Nc2ccc(OC)cc2C(=O)OC(c2ccccc2)c2ccccc2)c(O)[nH]c(=O)c1C#N [D10]
Lightfastness [1]: B (ΔE is 15 or more and less than 30) | Solubility [2]: B (The percentage by which the coloring compound dissolves in the styrene monomer is 1 mass % or more and less than 10 mass %)

Cc1c(N=Nc2ccccc2C(=O)N(Cc2ccccc2)Cc2ccccc2)c(O)[nH]c(=O)c1C#N [D11]
Lightfastness [1]: A (ΔE is less than 15) | Solubility [2]: B (The percentage by which the coloring compound dissolves in the styrene monomer is 1 mass % or more and less than 10 mass %)

Cc1c(N=Nc2ccccc2C(=O)N(c2ccccc2)c2ccccc2)c(O)[nH]c(=O)c1C#N [D12]
Lightfastness [1]: A (ΔE is less than 15) | Solubility [2]: B (The percentage by which the coloring compound dissolves in the styrene monomer is 1 mass % or more and less than 10 mass %)

CCCCC(CC)CN(CC(CC)CCCC)C(=O)c1ccccc1N=Nc1c(O)[nH]c(=O)c(C(N)=O)c1C (centres unmarked) [D14]
Lightfastness [1]: B (ΔE is 15 or more and less than 30) | Solubility [2]: B (The percentage by which the coloring compound dissolves in the styrene monomer is 1 mass % or more and less than 10 mass %)

CCCCc1c(N=Nc2ccccc2C(=O)NCC(CC)CCCC)c(O)[nH]c(=O)c1C#N (centres unmarked) [D15]
Lightfastness [1]: A (ΔE is less than 15) | Solubility [2]: B (The percentage by which the coloring compound dissolves in the styrene monomer is 1 mass % or more and less than 10 mass %)

CCCCc1c(N=Nc2ccccc2C(=O)N2CCC(CCC)CC2)c(O)[nH]c(=O)c1C#N [D16]
Lightfastness [1]: A (ΔE is less than 15) | Solubility [2]: B (The percentage by which the coloring compound dissolves in the styrene monomer is 1 mass % or more and less than 10 mass %)

CCCCc1ccc(N=Nc2c(O)[nH]c(=O)c(C#N)c2C)cc1 [E1, reference compound]
Lightfastness [1]: C (ΔE is 30 or more) | Solubility [2]: B (The percentage by which the coloring compound dissolves in the styrene monomer is 1 mass % or more and less than 10 mass %)

CCCCn1c(O)c(N=Nc2ccc(Cl)cc2)c(C)c(C#N)c1=O [E2, reference compound]
Lightfastness [1]: C (ΔE is 30 or more) | Solubility [2]: B (The percentage by which the coloring compound dissolves in the styrene monomer is 1 mass % or more and less than 10 mass %)

CCCCC(CC)CNS(=O)(=O)c1ccc(N=Nc2c(C)c(C#N)c(=O)n(CCCC)c2O)cc1 (centres unmarked) [E3, reference compound]
Lightfastness [1]: C (ΔE is 30 or more) | Solubility [2]: A (The percentage by which the coloring compound dissolves in the styrene monomer is 10 mass % or more)

Cc1c(N=Nc2ccc(N(C)C)cc2)c(O)n(CCCl)c(=O)c1C#N [E4, reference compound]
Lightfastness [1]: C (ΔE is 30 or more) | Solubility [2]: B (The percentage by which the coloring compound dissolves in the styrene monomer is 1 mass % or more and less than 10 mass %)

CCCCn1c(O)c(N=Nc2ccc(C(=O)OC)cc2)c(C)c(C#N)c1=O [E5, reference compound]
Lightfastness [1]: C (ΔE is 30 or more) | Solubility [2]: C (The percentage by which the coloring compound dissolves in the styrene monomer is less than 1 mass %)

CCCCC(CC)CN(CC(CC)CCCC)C(=O)c1ccc(N=Nc2c(C)c(C#N)c(=O)n(CC)c2O)cc1 (centres unmarked) [E6, reference compound]
Lightfastness [1]: C (ΔE is 30 or more) | Solubility [2]: A (The percentage by which the coloring compound dissolves in the styrene monomer is 10 mass % or more)

CCCCn1c(O)c(N=Nc2cccc(C)c2)c(C)c(C#N)c1=O [E7, reference compound]
Lightfastness [1]: C (ΔE is 30 or more) | Solubility [2]: B (The percentage by which the coloring compound dissolves in the styrene monomer is 1 mass % or more and less than 10 mass %)

CCCCn1c(O)c(N=Nc2ccccc2[N+](=O)[O-])c(C)c(C#N)c1=O [E8, reference compound]
Lightfastness [1]: C (ΔE is 30 or more) | Solubility [2]: C (The percentage by which the coloring compound dissolves in the styrene monomer is less than 1 mass %)

CCCCC(CC)CN(CC(CC)CCCC)C(=O)c1cccc(N=Nc2c(O)[nH]c(=O)c(C#N)c2C)c1 (centres unmarked) [E9, reference compound]
Lightfastness [1]: A (ΔE is less than 15) | Solubility [2]: C (The percentage by which the coloring compound dissolves in the styrene monomer is less than 1 mass %)

CCCCC(CC)CN(CC(CC)CCCC)C(=O)c1ccc(N=Nc2c(O)[nH]c(=O)c(C#N)c2C)cc1 (centres unmarked) [E10, reference compound]
Lightfastness [1]: C (ΔE is 30 or more) | Solubility [2]: A (The percentage by which the coloring compound dissolves in the styrene monomer is 10 mass % or more)

CCCCC(CC)CN(CC(CC)CCCC)C(=O)c1ccccc1N=Nc1c(C)c(C#N)c(=O)n(CC)c1O (centres unmarked) [E11, reference compound]
Lightfastness [1]: C (ΔE is 30 or more) | Solubility [2]: A (The percentage by which the coloring compound dissolves in the styrene monomer is 10 mass % or more)
